The text below walks through data of PMC9186491, “Novel Small Molecule Tyrosine Kinase 2 Pseudokinase Ligands Block Cytokine-Induced TYK2-Mediated Signaling Pathways” (Frontiers in Immunology, 2022).

Read-outs that look alike come from different tables or passages of the source.

One data set can be described thus: GSH. The format is in vitro ADME.
The target in another data set is JAK2 (Homo sapiens, UniProt O60674). Description: Z'LYTE JAK kinase inhibition assay, JAK2. As to conditions: read-out: JAK Catalytic Selectivity (IC50) JAK2. The format is biochemical.
Sequence of JAK2 (O60674 whole entry, the tested form may be a part): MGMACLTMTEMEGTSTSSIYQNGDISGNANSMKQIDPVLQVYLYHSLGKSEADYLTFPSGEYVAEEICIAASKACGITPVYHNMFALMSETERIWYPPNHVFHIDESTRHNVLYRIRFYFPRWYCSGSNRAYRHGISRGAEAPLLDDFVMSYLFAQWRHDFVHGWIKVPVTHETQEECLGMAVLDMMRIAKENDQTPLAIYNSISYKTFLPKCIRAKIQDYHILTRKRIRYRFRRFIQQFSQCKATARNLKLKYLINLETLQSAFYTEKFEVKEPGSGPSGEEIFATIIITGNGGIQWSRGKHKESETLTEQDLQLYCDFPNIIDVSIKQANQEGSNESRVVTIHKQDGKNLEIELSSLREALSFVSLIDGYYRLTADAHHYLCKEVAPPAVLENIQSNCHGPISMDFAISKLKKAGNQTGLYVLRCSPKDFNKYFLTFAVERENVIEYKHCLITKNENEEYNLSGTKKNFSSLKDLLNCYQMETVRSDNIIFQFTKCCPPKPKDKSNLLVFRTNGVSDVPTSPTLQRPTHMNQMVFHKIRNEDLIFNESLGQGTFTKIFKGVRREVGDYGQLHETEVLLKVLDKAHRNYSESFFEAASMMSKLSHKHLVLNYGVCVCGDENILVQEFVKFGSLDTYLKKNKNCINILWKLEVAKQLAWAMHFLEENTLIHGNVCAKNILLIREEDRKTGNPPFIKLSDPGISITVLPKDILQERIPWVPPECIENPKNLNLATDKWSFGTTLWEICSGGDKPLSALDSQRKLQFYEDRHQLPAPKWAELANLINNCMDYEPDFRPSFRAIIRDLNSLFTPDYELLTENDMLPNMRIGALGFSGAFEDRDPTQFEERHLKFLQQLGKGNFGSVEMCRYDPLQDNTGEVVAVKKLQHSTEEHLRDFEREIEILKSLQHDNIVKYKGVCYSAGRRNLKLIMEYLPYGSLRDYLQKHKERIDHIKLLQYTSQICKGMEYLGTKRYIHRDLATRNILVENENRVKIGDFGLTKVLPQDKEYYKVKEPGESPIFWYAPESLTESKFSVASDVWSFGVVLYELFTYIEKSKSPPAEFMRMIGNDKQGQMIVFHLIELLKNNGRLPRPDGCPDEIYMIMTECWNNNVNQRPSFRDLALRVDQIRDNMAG
For a further data set, the target named is T1, JAK1 JH1 kinase domain (Homo sapiens, UniProt P23458).
T1 construct: purchased Eurofins DiscoverX Corporation (contract assay)
T1 sequence (P23458 875-1153 limits assumed): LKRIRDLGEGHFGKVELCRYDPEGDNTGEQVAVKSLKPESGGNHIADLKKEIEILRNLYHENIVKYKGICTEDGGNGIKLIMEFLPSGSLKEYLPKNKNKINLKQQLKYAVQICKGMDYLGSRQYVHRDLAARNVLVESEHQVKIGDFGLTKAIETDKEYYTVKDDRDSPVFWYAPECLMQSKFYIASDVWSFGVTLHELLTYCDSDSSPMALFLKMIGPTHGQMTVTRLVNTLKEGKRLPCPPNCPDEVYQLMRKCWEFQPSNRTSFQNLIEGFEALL
Description: KdELECT competition binding assay, JAK1 JH1. The note with it: read-out: JAK Binding Selectivity (Kd) Catalytical Domain (JH1) JAK1. The procedure:
The KdELECT competition assays were performed to test the binding affinity of compounds to the JH1 kinase region or JH2 pseudokinase region in TYK2 or JAK by ligand competition with JH1 or JH2 protein segments. The assay was carried out at Eurofins DiscoverX Corporation following the established standard protocol (DiscoverX, San Diego, CA). In this assay, compounds that bind to the kinase or pseudokinase protein regions prevent the protein binding to the immobilized ligand and reduce the amount of kinase matter captured on the solid surface. […] Dissociation constants (Kds) for test compound-kinase interactions are calculated by measuring the amount of kinase captured on the solid support as a function of the test compound concentration. […] The ligated beads were blocked with excess biotin and washed with blocking buffer to remove unbound ligand and to reduce nonspecific binding. […] All reactions were performed in polypropylene 384-well plates with a final volume of 20 μL. […] The beads were then re-suspended in the elution buffer and incubated at room temperature with shaking for 30 minutes. The kinase concentration in the eluant was measured by qPCR. Two replicates were performed and averaged to obtain the Kd measurement.

Another data set addresses T2, JAK3 (Homo sapiens, UniProt P52333).
T2 sequence (P52333 1-1124): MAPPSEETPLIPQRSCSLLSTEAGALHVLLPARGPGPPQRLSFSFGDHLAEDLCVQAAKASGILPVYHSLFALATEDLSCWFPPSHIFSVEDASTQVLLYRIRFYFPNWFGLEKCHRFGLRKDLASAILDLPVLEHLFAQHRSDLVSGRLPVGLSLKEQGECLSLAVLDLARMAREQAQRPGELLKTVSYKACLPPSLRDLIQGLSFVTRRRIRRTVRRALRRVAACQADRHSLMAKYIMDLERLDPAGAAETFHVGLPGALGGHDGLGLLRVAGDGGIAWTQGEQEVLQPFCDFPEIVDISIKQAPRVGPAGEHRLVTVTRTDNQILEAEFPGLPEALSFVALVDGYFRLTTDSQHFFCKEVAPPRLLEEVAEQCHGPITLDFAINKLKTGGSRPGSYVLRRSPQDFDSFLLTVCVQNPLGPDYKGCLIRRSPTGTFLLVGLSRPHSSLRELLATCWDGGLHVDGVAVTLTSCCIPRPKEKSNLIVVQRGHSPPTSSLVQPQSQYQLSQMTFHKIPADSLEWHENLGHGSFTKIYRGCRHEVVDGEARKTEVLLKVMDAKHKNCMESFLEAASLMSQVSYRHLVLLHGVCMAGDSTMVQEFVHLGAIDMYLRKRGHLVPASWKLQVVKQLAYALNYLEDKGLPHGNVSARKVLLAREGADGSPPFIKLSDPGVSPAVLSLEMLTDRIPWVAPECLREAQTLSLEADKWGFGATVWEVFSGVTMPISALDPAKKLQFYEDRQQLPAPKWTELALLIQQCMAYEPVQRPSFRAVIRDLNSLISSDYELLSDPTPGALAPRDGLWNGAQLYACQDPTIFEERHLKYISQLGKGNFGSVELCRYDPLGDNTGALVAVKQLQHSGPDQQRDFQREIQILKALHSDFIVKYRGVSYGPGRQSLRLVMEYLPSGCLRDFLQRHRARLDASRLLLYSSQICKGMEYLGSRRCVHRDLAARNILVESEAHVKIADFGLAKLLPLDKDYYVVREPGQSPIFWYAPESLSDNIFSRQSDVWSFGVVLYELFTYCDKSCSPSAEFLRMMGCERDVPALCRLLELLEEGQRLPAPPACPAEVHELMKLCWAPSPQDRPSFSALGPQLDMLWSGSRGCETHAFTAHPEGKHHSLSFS
Description: Z'LYTE JAK kinase inhibition assay, JAK3. The format is biochemical. As to conditions: read-out: JAK Catalytic Selectivity (IC50) JAK3.

The nature of a further data set: LM T1/2, H. The format is in vitro ADME. The note with it: human, liver microsomes. For orientation: Microsomes from liver hold many membrane-bound enzymes, among them those of drug oxidation.
Data set [1] concerns IFNα-induced TYK2-mediated IRF activity in Jurkat-Dual T cells. Description: Jurkat T cell reporter assay for IFNα-induced TYK2-mediated IRF activity. The format is cell-based. The note with it: Homo sapiens, SEAP. From the text: Jurkat-Dual™ T cells (In vivogen, jktd-isnf) were purchased from In vivogen (San Diego, CA). The cells feature the dual-reporter system, with a Lucia luciferase gene driven by an interferon-β (IFN-β) minimal promoter fused to the NFκB consensus transcriptional response element and the c-Rel binding site, as well as a secreted embryonic alkaline phosphatase (SEAP) reporter gene under the control of an IFN-stimulated gene 54 (ISG54) minimal promoter in conjunction with five IFN-stimulated response elements. With the dual-reporter design, Jurkat-Dual™ cells allow the simultaneous investigation of both the NFκB pathway, by monitoring the Lucia luciferase, and the interferon regulatory factor (IRF) pathway, by assessing the activity of SEAP. In this study, the Jurkat-Dual™ T cells were plated at a sterilized U-shaped 96-well plate in RPMI (Thermo Fisher) containing 10% heat-inactivated Fetal Bovine Serum (FBS) (Thermo Fisher) and 100 U/mL Penicillin-Streptomycin (Thermo Fisher) at a density of 2.0 × 10^6/mL. Seeded cells were treated with serially diluted compounds and stimulated with 80 ng/mL human recombinant IFNα (Biolegend, # 592702) overnight in a humidified, 5% CO2 cell culture incubator at 37°C. Activity of SEAP was then detected from the cell cultured supernatant according to the manufacturer’s instructions.
On the technique in general: In a reporter assay the amount or activity of a reporter protein is the signal.

In another data set the target is CYP450 3A4 (Homo sapiens, UniProt P08684). Description: CYP450 inhibition, 3A4. Format: in vitro ADME.
Sequence of CYP450 3A4 (P08684 whole entry): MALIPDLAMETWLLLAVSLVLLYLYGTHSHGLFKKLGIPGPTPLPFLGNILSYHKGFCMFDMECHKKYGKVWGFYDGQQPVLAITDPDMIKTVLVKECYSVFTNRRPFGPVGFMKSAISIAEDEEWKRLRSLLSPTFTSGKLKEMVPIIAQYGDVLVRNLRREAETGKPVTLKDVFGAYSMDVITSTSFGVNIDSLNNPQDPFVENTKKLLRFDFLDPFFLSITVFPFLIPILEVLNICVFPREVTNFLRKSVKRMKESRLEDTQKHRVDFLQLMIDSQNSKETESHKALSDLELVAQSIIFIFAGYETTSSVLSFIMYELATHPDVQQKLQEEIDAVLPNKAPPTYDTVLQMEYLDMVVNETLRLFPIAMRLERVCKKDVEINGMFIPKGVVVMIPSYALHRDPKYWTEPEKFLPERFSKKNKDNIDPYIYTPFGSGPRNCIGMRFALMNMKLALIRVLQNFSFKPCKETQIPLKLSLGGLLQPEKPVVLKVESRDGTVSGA
The target in a further data set is JAK1 (Homo sapiens, UniProt P23458). Description: Z'LYTE JAK kinase inhibition assay, JAK1. The format is biochemical. The note with it: read-out: JAK Catalytic Selectivity (IC50) JAK1.
Sequence of JAK1 (P23458 whole entry): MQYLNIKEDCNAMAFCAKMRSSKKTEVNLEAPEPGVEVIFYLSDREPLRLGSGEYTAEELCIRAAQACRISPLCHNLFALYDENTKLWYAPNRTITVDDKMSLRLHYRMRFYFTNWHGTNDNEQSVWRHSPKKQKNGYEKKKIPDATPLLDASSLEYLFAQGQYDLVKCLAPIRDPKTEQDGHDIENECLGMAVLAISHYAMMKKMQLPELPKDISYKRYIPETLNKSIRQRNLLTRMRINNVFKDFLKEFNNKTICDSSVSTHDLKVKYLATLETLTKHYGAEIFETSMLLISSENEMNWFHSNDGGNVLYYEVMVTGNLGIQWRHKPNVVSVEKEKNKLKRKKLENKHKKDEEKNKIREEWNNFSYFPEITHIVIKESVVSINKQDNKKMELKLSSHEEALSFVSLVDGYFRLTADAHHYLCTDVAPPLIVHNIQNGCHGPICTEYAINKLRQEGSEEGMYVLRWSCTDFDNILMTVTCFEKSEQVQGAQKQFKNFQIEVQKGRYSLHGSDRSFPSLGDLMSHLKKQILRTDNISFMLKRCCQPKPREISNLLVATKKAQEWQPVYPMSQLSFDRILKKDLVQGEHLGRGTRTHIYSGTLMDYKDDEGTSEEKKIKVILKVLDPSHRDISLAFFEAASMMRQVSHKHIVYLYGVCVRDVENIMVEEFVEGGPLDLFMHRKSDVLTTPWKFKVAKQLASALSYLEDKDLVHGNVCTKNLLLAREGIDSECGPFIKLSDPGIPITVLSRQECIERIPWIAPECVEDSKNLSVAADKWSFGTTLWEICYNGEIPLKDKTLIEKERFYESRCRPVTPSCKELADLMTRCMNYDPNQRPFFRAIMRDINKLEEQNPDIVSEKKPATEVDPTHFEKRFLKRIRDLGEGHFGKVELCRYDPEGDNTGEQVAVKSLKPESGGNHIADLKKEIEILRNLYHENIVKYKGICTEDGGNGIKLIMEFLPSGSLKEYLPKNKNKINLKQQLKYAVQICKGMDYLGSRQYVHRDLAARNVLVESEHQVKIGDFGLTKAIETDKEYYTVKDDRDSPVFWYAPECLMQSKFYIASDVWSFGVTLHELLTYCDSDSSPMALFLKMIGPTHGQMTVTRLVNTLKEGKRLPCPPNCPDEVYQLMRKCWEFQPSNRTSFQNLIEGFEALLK
For data set [2], the system named is JAK1-dependent IL6-induced phosphorylation of STAT3 (Tyr705) in TF1 cells. Description: JAK cellular selectivity assay, IL6-pSTAT3 (JAK1). Format: cell-based. The note with it: Homo sapiens, TF-1; TF1 cells; read-out: JAK Cellular Selectivity (IC50) IL6-pSTAT3 (JAK1). The procedure:
The cells were then ready for the assay after incubating for 2 hours in a humidified, 5% CO2 cell culture incubator at 37°C. […] The curve fit was generated, and statistical analysis was performed using GraphPad Prism. IC50 values were derived by non-linear regression analysis and defined as the compound concentration at which the response level was reduced to half of its maximum relative to a DMSO control.

For another data set, the target named is CYP450 2D6 (Homo sapiens, UniProt P10635). Description: CYP450 inhibition, 2D6. Format: in vitro ADME.
Sequence of CYP450 2D6 (P10635 whole entry): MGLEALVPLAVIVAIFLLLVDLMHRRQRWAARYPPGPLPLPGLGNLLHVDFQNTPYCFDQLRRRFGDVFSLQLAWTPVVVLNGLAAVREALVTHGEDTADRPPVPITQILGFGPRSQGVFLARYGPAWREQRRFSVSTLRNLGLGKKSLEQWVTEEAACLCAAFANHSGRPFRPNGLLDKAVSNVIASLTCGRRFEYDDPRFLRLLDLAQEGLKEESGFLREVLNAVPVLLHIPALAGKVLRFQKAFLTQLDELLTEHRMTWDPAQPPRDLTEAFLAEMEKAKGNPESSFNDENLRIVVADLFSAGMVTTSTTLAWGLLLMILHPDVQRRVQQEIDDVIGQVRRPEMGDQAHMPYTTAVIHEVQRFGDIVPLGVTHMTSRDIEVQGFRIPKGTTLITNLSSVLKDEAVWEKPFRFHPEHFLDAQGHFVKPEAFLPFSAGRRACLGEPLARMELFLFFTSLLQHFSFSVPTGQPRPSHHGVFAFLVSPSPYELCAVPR
The mark [3] stands for this setting: 3A4(m), read-out: CYP450 3A4(m).
The mark [4] stands for this setting: 3A4(t), read-out: CYP450 3A4(t).

For the molecule `CNC(=O)c1nnc(NC(=O)C2CC2)c2[nH]c(-c3ccc(N)cc3OC)cc12` [SHR2396], the GSH entry in “GSH” was “negative”. Besides, the IC50 on JAK2 was over 10 µM; on JAK3, over 10 µM; in [1] it was 0.0097 µM; at CYP450 3A4 (setting [3]), over 30 µM; on CYP450 3A4 (setting [4]), over 30 µM; at JAK1, over 10 µM. Moreover, the values for the IC50 (in data set [2]; against CYP450 2D6) were 0.15 ± 0.059 µM and over 30 µM, respectively. The Kd on JAK1 JH1 kinase domain is over 20 µM. The half-life in “LM T1/2, H” is over 2.32 h.
For `CNC(=O)c1nnc(NC(=O)N2CCC2)cc1Nc1cccc(-c2ncn(C)n2)c1OC` [SHR8751], the GSH entry in the data set “GSH” is listed as “negative”. The IC50 is over 10 µM on JAK2; over 10 µM on JAK3; 0.048 µM in [1]; over 30 µM at CYP450 3A4 (setting [3]); over 30 µM on CYP450 3A4 (setting [4]); over 10 µM on JAK1. In addition, the results for the IC50 (in data set [2]; on CYP450 2D6) were 5.8 ± 3.7 µM and over 30 µM, respectively. The dissociation constant (Kd) at JAK1 JH1 kinase domain was over 20 µM. Further, in “LM T1/2, H”, the half-life was over 2.32 h.
In the case of `[2H]C([2H])([2H])NC(=O)c1nnc(NC(=O)N2CCC2)cc1Nc1cccc(-c2ncn(C)n2)c1OC` [SHR9332], the GSH entry in “GSH” is “negative”. Besides, the IC50 at JAK2 is over 10 µM; on JAK3, over 10 µM; in data set [1] it was 0.055 µM; on CYP450 3A4 (setting [3]) it was over 30 µM; at CYP450 3A4 (setting [4]), over 30 µM; at JAK1 it was over 10 µM. Moreover, the figures for the IC50 (in [2]; on CYP450 2D6) were 2.8 ± 1.7 µM and over 30 µM, respectively. Also, the equilibrium dissociation constant (Kd) at JAK1 JH1 kinase domain was over 20 µM. The half-life in “LM T1/2, H” is 0.792 h.

Broadly, the Kd is the equilibrium constant for the complex coming apart. Broadly, the half-life is how long it takes for the measured level to halve. Higher therefore signals slow loss.
